The conditions of this data set: 101 kPa, Liquid; for viscosity: Capillary tube (Ostwald / Ubbelohde) method; for mass density: Pycnometric method.

± gives the expanded uncertainty stated by the source.

The viscosity is the resistance of a fluid to flow. Broadly, the mass density is mass per unit of volume. As to `C1CCCCC1` [cyclohexane], the viscosity (288.15 K) was determined as 1.077 ± 0.011 mPa·s; the viscosity (293.15 K) is reported as 0.984 ± 0.01 mPa·s; the viscosity (298.15 K) stood at 0.903 ± 0.01 mPa·s; the viscosity (303.15 K) was found to be 0.83 ± 0.009 mPa·s; the viscosity (308.15 K) is 0.764 ± 0.009 mPa·s. For the same compound, the mass density is, setting by setting: (288.15 K) 783.3 ± 0.3 kg/m3; (293.15 K) 778.6 ± 0.3 kg/m3; (298.15 K) 773.9 ± 0.3 kg/m3; (303.15 K) 769.2 ± 0.3 kg/m3; (308.15 K) 764.5 ± 0.4 kg/m3.

Consider `CCCCCCC` [heptane], for which the viscosity runs as follows: (288.15 K) 0.441 ± 0.007 mPa·s; (293.15 K) 0.417 ± 0.007 mPa·s; (298.15 K) 0.396 ± 0.007 mPa·s; (303.15 K) 0.375 ± 0.007 mPa·s; (308.15 K) 0.356 ± 0.007 mPa·s. The mass density (288.15 K) was found to be 688.1 ± 0.3 kg/m3; the mass density (293.15 K) is recorded as 683.8 ± 0.3 kg/m3; the mass density (298.15 K) came out at 679.7 ± 0.3 kg/m3; the mass density (303.15 K) was found to be 675.4 ± 0.3 kg/m3; the mass density (308.15 K) amounted to 671.1 ± 0.3 kg/m3.

For the origin of these results see the NIST ThermoML archive (doi:10.1021/je8003707).
